Tests used:
[1] = system: Non-obese diabetic (NOD) mouse; assay: Treatment of NOD mice, development of diabetes; format: in vivo; conditions: 10 μg injected three times a week
Experimental: NOD mice are obtained from Jackson Laboratories, Bar Harbor, Me., and are used as an experimental system (Shi et al. (2001) Proc. Natl. Acad. Sci. USA 98: 6777-6782). These mice begin to develop diabetes at about 13-15 weeks and data are obtained after about 30 weeks to obtain data, such as a frequency of symptoms for comparison of treated and untreated groups of mice. NOD mice were treated herein with Copaxone®, and no difference was found between the untreated animals and animals treated with Copaxone®. In the experiment, 10 μg of Copaxone® was injected into mice three times a week (equivalent to the human dose on a weight ratio basis. A higher dose, 33 μg Copaxone®/mouse three times a week, is also employed. These experiments test the hypothesis that Copaxone® would be ineffective.

[2] = system: T cells; conditions: cited from earlier work

In the case of Glatiramer acetate, the “difference between untreated and treated NOD mice (diabetes)” value [1] is given as “no difference”, the “proportion of an individual's T cells activated” value ([2]; HLA-DR restricted) is given as 15-20% and the “T cell response generated through HLA-DQ molecules” value [2] is given as “little response”.

Reference: patent US20080194462A1, “Methods and Compositions for Treatment of Autoimmune Diseases” (Peptimmune, Inc., priority 2004, published 2008)
